Results as given in US9573899B2, “USP7 inhibitor compounds and methods of use” (Genentech, Inc., priority 2015, dated 2017).

Key:
USP7 catalytic domain = USP7 catalytic domain (Homo sapiens, UniProt Q93009); experiment: Ub-Rho110 DUB assay, Table 2, USP7 catalytic domain; type: biochemical; conditions: read-out: Ub-Rho110 IC50, USP7 cat
Protocol: Biochemical USP7 assays using Ubiquitin-Rho110 as a substrate: The final assay conditions were as follows: The Reaction Buffer consisted of: 50 mM Tris (pH 7.5), 0.01% (v/v) Triton X-100, 2.5 mM Dithiothreitol, 0.1% (w/v) bovine gamma globulin (Sigma cat #G5009-25G); USP7, full-length, native C-Terminus, 0.2 nM; the substrate, Ubiquitin-Rho110 (Boston Biochem cat #U-555), 1 uM. Reactions were carried out for 1 hour at room temperature, in black 20 μL volume polystyrene ProxiPlate 384 F Plus® (PerkinElmer cat #6008260).
Test compounds, including a control USP7 inhibitor (Ub-aldehyde, Boston Biochem cat #U-201) were serially diluted in DMSO, in 384 well clear V-bottom polypropylene plates (Greiner cat #781280). Compounds in DMSO were diluted 10-fold into Reaction Buffer, to achieve 3-fold the final desired concentration. The substrate, Ubiquitin-Rho110 (Boston Biochem cat #U-555), was prepared at 3 μM (3-fold the final concentration) and 5 ul was dispensed into the reaction plate. 5 ul of the compounds (diluted in Reaction Buffer at 3-fold the final concentration) were transferred to the reaction plate. 5 ul of 0.6 nM USP7 (diluted in Reaction Buffer at 3-fold the final concentration) was transferred to the reaction plate to initiate the reaction. After 1 hour incubation at room temperature the reaction was quenched by the addition of 5 ul of 400 mM acetic acid. The enzymatic product was measured by quantifying the fluorescence signal of cleaved Rhodamine-110 using excitation at 485 nm and emission at 535 nm. When pre-incubation of USP7 with compounds was required, the order of addition of reagents was modified to pre-mix the compounds with USP7 (with a 1 hour incubation period), prior to the addition of the substrate and the initiation of the reaction period. Percentage inhibition values were calculated relative to a no enzyme control and a uninhibited enzyme control. Curve fitting and IC50 calculations were carried out using Genedata Screener software.

[1] = tested on: ubiquityl-MDM2 in SJSA-1 osteosarcoma cells; experiment: Cellular ubiquityl-MDM2 assay (MSD Ub/Total MDM2); type: cell-based; conditions: Homo sapiens; SJSA-1 cells, low serum conditions; read-out: increase in ubiquityl-MDM2 (EC50)
Protocol: HCT116 colon cancer cells or SJSA-1 osteosarcoma cells were seeded at a density of 150,000 cell per well in 90 ml (RPMI 1640 media, 10% FBS, 1× GlutaMAX™, Gibco) in 96-well black clear bottom, TC-treated (Greiner, Cat#655090), and incubated for 2 hours at 37° C., 5% CO2 in a tissue culture incubator. Compounds were prepared in a serial dilution in DMSO at 200× the final desired concentration in a 96-well polypropylene V-bottom (Greiner, Cat#651261), then diluted 1:20 in RPMI tissue culture medium and 10 ml transferred to each well of the cell plate. Cell plates were incubated overnight for 20 hours, 37° C., 5% CO2. 20 ml of a […] stock (in RPMI) of the proteasome inhibitor, MG132 (Cayman Chemical, Cat#10012628), was added to each well. Cells were incubated for 1 hour at 37° C., 5% CO2. Quantitation of ubiquityl-MDM2 was carried out using Ub/Total MDM2 whole cell lysate kit (MSD, Cat#K15168D-2). […] MSD read buffer was prepared according to manufacturer's instructions and 150 ml added per well. Plates were read using a MSD Sector Reader. […] Percentage increase in ubiquityl-MDM2 was calculated relative to DMSO controls using Genedata Screener software.

[2] = tested on: MDM2 in MCF7 breast cancer cells; experiment: MDM2 turnover in MCF7 cells with cycloheximide (FIG. 3A); type: cell-based; conditions: 15 μM, in the presence of cycloheximide (CHX)
Protocol: In 24-well plates, 0.15×10^6 MCF-7 cells were treated for a total of 8 h with DMSO or compounds (15 μM). During that 8 h, cycloheximide (CHX) was added for the indicated times prior to harvest.

[3] = tested on: HCT116 cells (wild type and USP7 null); experiment: CellTitre-Glo cell viability, HCT116 wild type and USP7 null (FIG. 4); type: cell-based, Human; conditions: HCT116 wild type versus USP7 null
Protocol: (§1) 2,500-5,000 cells were seeded in 1-well of a 96-well plate (Corning; 3904). The following day, the media was changed from normal (10%) to low serum (0.5%) containing vehicle (DMSO) or compounds. 16-24 h later FBS was added to each well to bring serum levels back to normal (10%). Cells were then allowed to grow for 2 days. All treatments were done in triplicate.
(§2) Seventy two hours after compounds were added, CellTitre Glo (CTG) reagent was added following the protocol provided by the manufacturer (Promega). In the experiment to test compound dependency on USP7, 3× more USP7 null cells were plated per well (7,500 vs. 2,500 for wild-type (WT) cells), given the slower proliferation of USP7 null cells. For the multiple myeloma experiment, cells seeded in low serum and treated with compounds immediately. Twenty four hours later, serum was added back to normal levels. CTG assay was done 24 h later i.e. 48 h after compounds were added instead of 72 hrs later for the adherent cells.

[4] = tested on: MCF-7, U Os, normal osteoblast, MDA-MB157 and SaOs cell lines; experiment: CellTiter-Glo viability of tumor, matched normal and p53 null cell lines (FIG. 9); type: cell-based
Protocol: as §1, §2

[5] = tested on: MCF-7 p53 WT breast cancer cells; experiment: Incucyte cell proliferation and caspase activity, MCF-7 (FIG. 10, 17); type: cell-based; conditions: MCF-7 p53 WT compared to MDA-MB157 p53 null cells; compared to 89
Protocol: (§3) 2,500-5,000 cells were seeded in 1-well of a 96-well plate (Corning; 3904). The following day, the media was changed from normal (10%) to low serum (0.5%) containing vehicle (DMSO) or compounds. 16-24 h later FBS was added to each well to bring serum levels back to normal (10%). Cells were then allowed to grow for 2 days. All treatments were done in triplicate. The day after cells were seeded, the media was changed to low serum media containing 2 μM CellEvent Caspase 3/7 reagent (Life Technologies; C10423) and compounds. The plates were placed in an IncuCyte (Essen Bioscience, Inc.) live cell imager and scanning was started 15-20 mins after. IncuCyte™ ZOOM facilitates live-cell monitoring via customized imaging protocols. Images were taken every 2 h for at least 3 days, using a 10× objective. Phase contrast was used to measure cell confluency/density while green fluorescence was used to measure caspase activity. The images were analyzed using IncuCyte software (Basic Analysis parameters) and a ratio of caspase activity to cell density was determined.

[6] = tested on: p53 and p21 in p53 wild-type breast cancer and osteosarcoma cells; experiment: Western blot of p53 and p21 in breast cancer, osteosarcoma and normal cells (FIG. 12A); type: cell-based; conditions: 15 μM, <24 h, low serum; p53 wild-type breast cancer and osteosarcoma cells but not normal cells
Protocol: (§4) In 24-well plates, 0.10-0.15×10^6 (adherent) or 0.5×10^6 (suspension) cells were treated with 15 μM or 2.5 μM compounds, respectively, for 24 h in low serum prior to lysis for Western Blot analysis.

[7] = tested on: p21 in KMS-21BM and KMS-28PE multiple myeloma cells; experiment: Western blot in multiple myeloma cells (FIG. 13B); type: cell-based; conditions: compared to 89
Protocol: as §4

[8] = tested on: colon cancer cell lines RKO and RKO-E6, and cervical cancer cell lines Vibo and SiHA; experiment: Incucyte cell proliferation in RKO, RKO-E6, Vibo and SiHA cells (FIG. 15); type: cell-based
Protocol: as §3

Chain of USP7 catalytic domain (Q93009 214-521 limits assumed): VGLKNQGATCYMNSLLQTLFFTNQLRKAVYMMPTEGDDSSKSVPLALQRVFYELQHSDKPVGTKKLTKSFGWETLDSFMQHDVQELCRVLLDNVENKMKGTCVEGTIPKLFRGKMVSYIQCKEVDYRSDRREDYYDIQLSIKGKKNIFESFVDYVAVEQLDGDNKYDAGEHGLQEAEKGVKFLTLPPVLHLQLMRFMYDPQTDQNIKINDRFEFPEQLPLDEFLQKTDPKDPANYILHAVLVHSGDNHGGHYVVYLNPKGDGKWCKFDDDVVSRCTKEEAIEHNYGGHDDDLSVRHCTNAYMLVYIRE

## CCc1c(-c2ccc3[nH]ncc3c2)cnc(N)c1-c1ccc(O)cc1 [Compound 88, 4-[2-amino-4-ethyl-5-(1H-indazol-5-yl)-3-pyridyl]phenol]
USP7 catalytic domain
  IC50: 430 nM
[1]
  EC50: 2000 nM
[2]
  destabilizing effect on MDM2 (western blot): destabilizing effects
[3]
  cell viability: USP7-dependent decrease in viability
[4]; MCF-7 and U Os, relative to compound 89
  cell viability (CellTiter-Glo), wild-type p53 tumor cell lines: decreased viability
[4]; normal osteoblast cell lines, p53 null MDA-MB157 and SaOs
  cell viability (CellTiter-Glo), matched normal and p53 null cell lines: do not show similar decreases in cell viability
[5]
  cell viability (Incucyte proliferation and caspase activity): decreases cell viability
[6]
  p53 and p21 levels (western blot): increases p53 and p21 levels
[7]
  p21 levels (western blot): increases p21 levels
[8]
  cell viability (Incucyte cell proliferation): decreases cell viability
